Marks after values point to notes of the source that are not given here.
Experiments:
[1] = Dog pharmacokinetic (PK) study, single oral administration; format: in vivo, Beagle dogs
Protocol: The 3 Beagle male dogs were fasted before dosing. Then all test drugs were administered by the oral route using API in a capsule. [table] Food was given no sooner than one hour after dose administration on the days of treatment. Each administration was separated by a wash-out period of at least 2 days. […] Predose (just before dosing) and then […] after dosing.

[2] = Phase Ib repeated-dose PK study in healthy human subjects; format: in vivo; conditions: for AUC0-24,ss, total pioglitazone / AUC0-24, ss dose normalized, total pioglitazone: steady state; for AUC0-24,ss, total pioglitazone: fasting
Protocol: Subjects were screened within 28 days before their first dose of study medication. They stayed in the clinic from 1 day before dosing (Day −1) until at least 48 hours after their final dose of trial medication (Day 11).
Each dose group was composed of 4 males and 4 females in a 3:1 active/placebo ratio. • One (1) Actos® group: 6 subjects (3 males and 3 females) were given Actos®. Placebo was not given to any subjects in this group.
Subjects received a single oral dose of study drug (7.5, 15, or 30 mg tablets of PXL065 or matching placebo tablets, or 45 mg Actos® tablets), under fasting conditions on Day 1. […] All study drugs were dosed in fasting conditions.
The PXL065 PK parameters of the three single oral doses on Day 1 and after seven daily administrations on Day 9 were compared to the Actos® PK parameters on Day 1 and after seven daily administrations on Day 9.
PXL065, orally administered. Dose=1×7.5 mg tablet, 1×15 mg tablet, or 1×30 mg tablet.
(§1) Actos®, orally administered. Dose=1×45 mg, tablet.
One single oral administration of PXL065 or matching placebo or Actos® was given on Day 1 in fasting conditions followed by once daily multiple oral administrations of PXL065 or matching placebo or Actos® from Day 3 to Day 9 (7 days) in fasting conditions.
Pharmacokinetics: Plasma samples were analyzed using a validated assay. The samples from all evaluable subjects were analyzed. Samples from subjects who experienced emesis within 4 hours of dosing were not analyzed.
Plasma PK parameters included, but were not limited to: • Following single dose on Day 1 and Day 3 (for PXL065 groups): tmax, tlag, Cmax, AUC0-last, AUC0-24, AUC0-inf, λz, t1/2, % AUCext, CL/F, Vz/F, Cmax/Dose, AUC0-last/Dose, AUC0-inf/Dose and MRT each calculated using compartmental or non-compartmental methods as appropriate for the deuterated and protonated (R)- and (S)-enantiomers of pioglitazone. • Day 4 to Day 9: Ctrough for the deuterated and protonated (R)- and (S)-enantiomers of pioglitazone; and • Following repeated doses on Day 9: tmax, Cmax, Cavg, tlag, AUC0-last, AUC0-24, AUC0-inf, λz, t1/2, % AUCext, CLss/F, Vzss/F, MRT, PTF, Rac(AUC0-24), Rac(Cmax) SR(AUC), Cmax/Dose, AUC0-last/Dose, AUC0-inf/Dose, AUC0-24/Dose. Safety

[3] = Phase Ia single-dose PK study in healthy human subjects; format: in vivo; conditions: single oral dose 22.5 mg capsule
Protocol: PXL065, orally administered.
as §1

[4] = 13-week dog toxicology study, toxicokinetics on day 91; conditions: for AUC0-24, ss dose normalized, total pioglitazone: Day 91, 5 mg/kg/day; for AUC0-24,ss, total pioglitazone: Day 91, oral capsule 5 mg/kg/day
[5] = single oral 5 mg/kg (capsule), fasted male dogs, plasma, mean

## [2H][C@]1(Cc2ccc(OCCc3ccc(CC)cn3)cc2)SC(=O)NC1=O [PXL065, deuterium-enriched (R)-pioglitazone]
[1]; dog, in vivo, po, 5 mg/kg
  AUC0-24, Total Pio: 7000 ng·h/mL
  AUC0-24, Total R-pio: 5770 ng·h/mL
  AUC0-24, Total S-pio: 1240 ng·h/mL
  Cmax, Total Pio: 1520 ng/mL
  Cmax, Total R-pio: 1330 ng/mL
  Cmax, Total S-pio: 227 ng/mL
  Tmax, Total Pio: 1 h
  Tmax, Total R-pio: 1 h
  Tmax, Total S-pio: 2 h
[1]; [5]
  T1/2z, Total Pio: 1.46^a h
  T1/2z, Total R-pio: 1.43^a h
  T1/2z, Total S-pio: 1.62^a h
[2]; 15 mg tablet once daily, repeated doses
  AUC0-24,ss, total pioglitazone: 6505 ng·h/mL
[2]; 15 mg tablet
  AUC0-24, ss dose normalized, total pioglitazone: 434 ng·h/mL/mg
[2]; 30 mg tablet once daily, repeated doses
  AUC0-24,ss, total pioglitazone: 13802 ng·h/mL
[2]; 30 mg tablet
  AUC0-24, ss dose normalized, total pioglitazone: 460 ng·h/mL/mg
[2]; humans, repeated doses
  Increase of relative bioavailability compared to Actos: 55%-65%
[3]
  AUCinf dose normalized, total pioglitazone: 618 ng·h/mL/mg
[3]; fasted healthy subjects
  AUCinf, total pioglitazone: 13896 ng·h/mL
[4]; female dogs (F)
  AUC0-24, ss dose normalized, total pioglitazone: 1762 ng·h/mL
  AUC0-24,ss, total pioglitazone: 8710 ng·h/mL
[4]; male dogs (M)
  AUC0-24, ss dose normalized, total pioglitazone: 2180 ng·h/mL
  AUC0-24,ss, total pioglitazone: 10900 ng·h/mL

Reference: patent US11319313B2, “Crystalline forms of deuterium-enriched pioglitazone” (Poxel SA, priority 2020, dated 2022)
